Assay results reported in patent publication US7795246B2, “Particle-forming compositions containing fused pyrrolocarbazoles” (Cephalon, Inc., priority 1998, dated 2010).
Converted amounts (≈) assume the structure as drawn. Read-outs that look alike come from different tables or passages of the source. Blank lines part the entries; values can stand above or below the compound they belong to.

Columns and labels:
physchem = assay type: physicochemical
Source text: Thus, dissolving the fused pyrrolocarbazole initially in this particular particle-forming composition achieves a better than 3.2-fold increase in fused pyrrolocarbazole concentration in the final solution. Because initial contact with an aqueous medium occurs in vitro or in vivo, the non-aqueous particle-forming compositions are useful for therapeutic administration of a fused pyrrolocarbazole to a mammal.

[1] = system: rat tumor model of prostate cancer; experiment: Rat tumor model of prostate cancer; assay type: in vivo
in vivo = details: beagle, dog, iv, 1 mg/kg
Method: An intravenous dose was included as the third formulation in the crossover design. […] The plasma concentrations, as determined by HPLC with fluorescence detection, were normalized to a 1 mg/kg dose. Pharmacokinetic parameters, including peak plasma concentration (Cmax), time to peak plasma concentration (Tmax), apparent elimination half life (t1/2), area under the curve (AUCoo) and the absolute bioavailability (F %) were determined.

[2] = cited from earlier work
[3] = Bioavailability in monkeys (plasma pharmacokinetics, HPLC); assay type: in vivo; details: cynomolgus monkey
Method: Pharmacokinetic parameters were measured following intravenous (i.v.) administration and oral (p.o.) administration. The test composition consisted of four male cynomolgus monkeys. The i.v. dose was administered as a bolus, at a dosage level of 3 mg/kg. The oral doses were administered as soft gelatin capsules, at a dosage level of 10 mg/kg (2 capsules/monkey/dose). The oral formulations were as described in Table 6, below.
Blood samples were collected at predetermined time points. […] Pharmacokinetic parameters were estimated by non-compartmental methods. In Table 7, Cmax is peak plasma concentration; Tmax is time to peak plasma concentration; Tt/2 is apparent elimination half-life; AUC is area under the curve; and F % is absolute bioavailability.

Compound: CC12OC(CC1(O)CO)n1c3ccccc3c3c4c(c5c6ccccc6n2c5c31)CNC4=O (stereo not shown) [Compound IIa-12]
solubility in water (physchem): essentially no solubility
solubility (physchem; aqueous with cosolvent or surfactant or cyclodextrin, kinetic from dmso stock): 570 µg/mL (≈ 1300 µM)
solubility (physchem; aqueous with cosolvent or surfactant or cyclodextrin, thermodynamic from solid): 180 µg/mL (≈ 410 µM)
solubility (physchem; organic solvent or mixture): 28400 µg/mL (≈ 64700 µM)
anticancer activity [1]: anticancer activity
clearance (in vivo): 13.2 mL/min/kg
half-life (in vivo): 69.6 min
Vd (in vivo; apparent volume of distribution Vc): 0.96 L/kg
Vd (in vivo; apparent volume of distribution Vβ): 1.35 L/kg

Compound: C[C@]12O[C@H](C[C@]1(O)C(=O)O)n1c3ccccc3c3c4c(c5c6ccccc6n2c5c31)CNC4=O [Compound K-252b, K-252b]
solubility in water [2]: insoluble

Compound: COC(=O)[C@@]1(O)C[C@H]2O[C@]1(C)n1c3ccccc3c3c4c(c5c6ccccc6n2c5c31)C(=O)NC4 [Compound K-252a, K-252a]
solubility in water [2]: insoluble

Compound: C[C@@H]1O[C@@H](n2c3ccccc3c3c4c(c5c6ccccc6[nH]c5c32)CNC4=O)[C@H](O)[C@H](O)[C@H]1O [Compound K-252d, K-252d]
solubility in water [2]: insoluble

Tt/2 ([3]; i.v. bolus 3 mg/kg, PEG 1450:Pluronic F68:hydroxypropyl-β-cyclodextrin:water): 3.0 h
AUC(0-t) ([3]; male, plasma, iv, i.v. bolus 3 mg/kg, PEG 1450:Pluronic F68:hydroxypropyl-β-cyclodextrin:water, read-out: AUC0-4): 2500 ± 348 ng·h/mL
clearance ([3]; male, plasma, iv, i.v. dose 3 mg/kg): 18.3 mL/min/kg
Vd ([3]; male, plasma, iv, i.v. dose 3 mg/kg, read-out: mean volume of distribution): 4.9 ± 0.7 L/kg
Compound: CCSCc1ccc2c(c1)c1c3c(c4c5cc(CSCC)ccc5n5c4c1n2C1CC(O)(C(=O)OC)C5(C)O1)CNC3=O (stereo not shown) [Compound IIa-51]
